Experimental data from US20220096862A1, “METHOD FOR IRRADIATING CELLS WITH LIGHT, METHOD FOR CONTROLLING MEDICAL DEVICE, AND MEDICAL DEVICE” (OLYMPUS CORPORATION, priority 2019, published 2022).

Legend:
[1] = test system: A431 tumor bearing mice; test: Percentage of attenuation of fluorescence versus cellular cytotoxicity after therapeutic light irradiation (PIT), FIG. 4; assay type: in vivo
Protocol: The total amount of irradiation is the same in both the case where irradiation is performed with the therapeutic light L with the light intensity of 50 mW/cm^2 or less and the case where irradiation is performed with the therapeutic light L with the light intensity of 100 mW/cm^2 or more. In other words, in the case where irradiation is performed with the therapeutic light L with the light intensity of 50 mW/cm^2 or less, a time period during which the cells C are irradiated is longer than a time period during which the cells C are irradiated with the therapeutic light L with the light intensity of 100 mW/cm^2 or more.
After the cells C are irradiated with the therapeutic light L, if the rate of reduction of fluorescence (the percentage of attenuation of fluorescence) and cellular cytotoxicity have a proportional relation, as shown by a dashed-and-dotted line A in FIG. 4, when the rate of reduction of fluorescence is 100%, cellular cytotoxicity is 100%. Therefore, it should be determined that all cells C disappear if fluorescence is no longer detected.
How ever, as the result of experiments performed by the applicant, the following is found. In actual experiments, as the result of observation that is performed after irradiation, by using the endoscope 1, for example, as the rate of reduction of fluorescence approaches 70% (or little more than 70%), cellular cytotoxicity approaches 100%.

[2] = test system: A431 tumor bearing mice; test: Rates of damage of tumor tissues from pathological images after irradiation at different light intensities (PIT), FIG. 5; assay type: in vivo; conditions: 300 μg/mouse, irradiated one day after administration, total amount 100 J/cm^2, 25 mW/cm^2 or 50 mW/cm^2 compared with 100 mW/cm^2 or 300 mW/cm^2, tumors excised after one more day
Protocol: Pan-IR700, which is the photosensitizing agent 20, is administered to the A431 tumor bearing mice at 300 μg/mouse. One day after the administration of Pan-IR700, the cells C are irradiated with light of respective irradiation intensities shown in FIG. 5 up to the same total amount (100 J/cm^2). After one more day, tumor tissues are excised, and rates of damage of the tissues are calculated from pathological images of cross sections of the tumors.

Substance: Pan-IR700: phthalocyanine fluorescent dye (IRDye 700) attached to one antibody molecule (panitumumab, monoclonal antibody to Human EGFR)
- cellular cytotoxicity ([1]; as the rate of reduction of fluorescence approaches 70% (or little more than 70%), after irradiation with therapeutic light L, FIG. 4): ~100%
- relationship of reduction of fluorescence and cellular cytotoxicity ([1]; therapeutic light L with light intensity of 50 mW/cm^2 or less (solid line B, FIG. 4)): linear relationship
- rate of cellular cytotoxicity ([1]; therapeutic light L with light intensity of 100 mW/cm^2 or more (solid line D, FIG. 4), reduction of fluorescence also found): low
- cellular cytotoxicity (rates of damage of the tissues) [2]: greater
